pEC50: −log10 of the molar value.
Biological target: Endothelial PAS domain-containing protein 1 (Homo sapiens, UniProt Q99814)
Sequence (Q99814 whole entry, the tested form may be a part): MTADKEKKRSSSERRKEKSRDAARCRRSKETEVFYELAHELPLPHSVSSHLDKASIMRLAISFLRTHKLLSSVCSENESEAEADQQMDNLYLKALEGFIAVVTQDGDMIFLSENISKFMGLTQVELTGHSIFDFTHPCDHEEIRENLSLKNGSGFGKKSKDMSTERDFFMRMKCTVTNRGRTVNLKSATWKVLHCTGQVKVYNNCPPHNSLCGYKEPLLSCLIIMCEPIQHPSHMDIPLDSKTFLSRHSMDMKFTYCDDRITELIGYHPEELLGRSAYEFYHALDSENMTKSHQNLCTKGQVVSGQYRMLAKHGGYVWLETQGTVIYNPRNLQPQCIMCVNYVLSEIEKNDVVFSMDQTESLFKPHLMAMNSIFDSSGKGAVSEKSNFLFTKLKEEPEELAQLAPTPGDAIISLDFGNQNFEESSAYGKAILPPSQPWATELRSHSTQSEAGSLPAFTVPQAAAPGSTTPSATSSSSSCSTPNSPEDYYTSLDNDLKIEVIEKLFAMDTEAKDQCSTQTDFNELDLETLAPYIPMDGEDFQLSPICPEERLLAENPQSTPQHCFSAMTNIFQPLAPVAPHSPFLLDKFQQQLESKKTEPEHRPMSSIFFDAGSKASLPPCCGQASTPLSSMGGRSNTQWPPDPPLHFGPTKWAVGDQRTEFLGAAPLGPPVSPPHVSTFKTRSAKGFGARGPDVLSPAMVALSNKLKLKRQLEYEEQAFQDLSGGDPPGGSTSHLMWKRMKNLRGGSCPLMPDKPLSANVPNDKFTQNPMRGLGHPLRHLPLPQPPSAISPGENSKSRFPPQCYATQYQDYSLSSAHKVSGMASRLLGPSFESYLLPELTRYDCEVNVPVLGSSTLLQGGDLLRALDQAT
Description: Agonist activity at HIF-2alpha (unknown origin) expressed in 786-O cells measured after 24 hrs by HRE based luciferase reporter gene assay

- pEC50: 5.53
Compound: Clc1cc(Cl)cc(Nc2nsc3ccccc23)c1

Source: ChEMBL document CHEMBL4831546, “Discovery of a Potent and Orally Bioavailable Hypoxia-Inducible Factor 2α (HIF-2α) Agonist and Its Synergistic Therapy with Prolyl Hydroxylase Inhibitors for the Treatment of Renal Anemia” (J Med Chem, 2021)
